The term Km denotes the substrate concentration at which the rate is half of its maximum.

Experimental findings from article PMC9558304, “Biomimetic Mineralization of Iron-Fumarate Nanoparticles for Protective Encapsulation and Intracellular Delivery of Proteins” (Chemistry of Materials, 2022) are described below.

The target of the assay is T1, horseradish peroxidase (HRP) (Armoracia rusticana, UniProt P00433).
T1 construct: gene PRXC1A
T1 sequence (P00433 31-338): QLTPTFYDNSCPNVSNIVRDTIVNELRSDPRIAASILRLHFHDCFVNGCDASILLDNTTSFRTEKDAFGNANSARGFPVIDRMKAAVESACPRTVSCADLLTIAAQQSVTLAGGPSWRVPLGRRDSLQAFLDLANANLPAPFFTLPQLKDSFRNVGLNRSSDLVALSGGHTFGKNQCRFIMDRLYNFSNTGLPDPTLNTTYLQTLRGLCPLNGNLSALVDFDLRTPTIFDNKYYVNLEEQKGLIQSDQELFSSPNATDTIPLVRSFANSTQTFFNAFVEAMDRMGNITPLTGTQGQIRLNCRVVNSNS
Kind of assay: fluorescence plate reader ([…] nm), Michaelis-Menten fit. In kind it is biochemical. The conditions noted are these: free HRP added to degraded Fe-fum NPs (citrate buffer); 2500 μM H2O2; Amplex UltraRed 0-100 μM.

For the substance Amplex UltraRed, the Michaelis-Menten constant (Km) was found to be 182 ± 73 µM.
